Laboratory results from patent US20240050385A1, “METHODS OF TREATING LEPTOMENINGEAL METASTASIS” (MEMORIAL SLOAN-KETTERING CANCER CENTER, priority 2020, published 2024).
Entries after “also recorded” stand apart in the source; their conditions may differ. Where a name gives a salt, the structure may show the parent alone.

Experiments:
MDA231-LeptoM cells = test: In vivo leptomeningeal metastasis assay, MDA231-LeptoM model, intracisternal chelator treatment; design: species or system mouse; details: for Median Survival: every 3 days; for [Fe]: total iron in CSF
Procedure: FIG. 15A-15G. LCN2 transports iron to support cancer cell growth. (A) Tumor growth in mice injected with MDA231-LeptoM cells expressing shCtl or shLCN2. Treatment with either vehicle or 5 mg/mL holo-transferrin (diferric [Tf]) began on day 1 and continued every third day for a total of 7 doses. Left: Histogram represents in vivo BLI imaging post-inoculation at day 21. n=8-10 per group in each of two independent experiments. Right: Representative BLI images. ** indicates p<0.01 (unpaired t test). Data represent mean±SEM. (B) Kaplan-Meier survival curve of LeptoM groups from (A). sh1+Veh vs sh1+Tf, p<0.0001. sh2+Veh vs sh2+Tf, p<0.0001. (C) Soluble iron concentration from macrophages collected from CSF in lipopolysaccharide (LPS)-stimulated, LeptoM or LeptoM-shLCN2 (sh1 and sh2) mouse model at day 14. Soluble iron was measured by mass spectroscopy. n=4 per group. ** indicates p<0.01, *** indicates p<0.001, **** indicates p<0.0001 (unpaired t test). Data represent mean±SEM. (D and E) Phagocytosis (D) and reactive oxygen species (ROS) generation (E) in CSF-derived macrophages by flow cytometric analysis after LeptoM (LLC model), shLCN2 LPS, or vehicle (Ctl) treatment. Phagocytosis detected by FITC-labeled E. coli. CellROX Green^+ cells represent percent of live cells with ROS. n=12-15 (Ctl), n=4-5 (LPS), n=11-18 (LeptoM), n=8 (shLCN2). NS=not significant, * indicates p<0.05, ** indicates p<0.01, **** indicates p<0.0001 (unpaired t test). Data represent mean±SEM in two independent experiments. (F) Tumor growth in MDA231-LeptoM model after chelator treatment: deferoxamine (DFO), D-penicillamine (D-Pen) on […] (early) or day 7 (late); see also FIG. 16. Left: in vivo BLI imaging in day 28 post-inoculation. n=8-10 per group in each of two independent experiments. Right: Representative BLI images. **** indicates p<0.0001. Data represent mean±SEM. (G) Kaplan-Meier survival curve of mice treated in (F). p<0.0001.
(§1) FIG. 16A-16L. Iron chelator treatment reduces CSF iron. (A) Experimental scheme. Mice were inoculated with 2×10^3 cells intrathecally on day 0. Treatment with either vehicle, DFO, or D-pen was commenced on either day 1 or day 7 and continued every third day for a total of 7 doses. (B) Chelators delivered intrathecally. DFO, Deferoxamine. D-Pen, D-Penicillamine. (C-F) Intracellular iron (C and E) and viability (D and F) of PC9-LeptoM cells and MDA231-LeptoM cells after treatment with chelators in different concentrations (0 μM, 1 μM, 10 μM and 100 μM). n=3-4 per group in each of two independent experiments. * indicates p<0.05, ** indicates p<0.01, ***indicates p<0.001, **** indicates p<0.0001 (unpaired t test). Data represent mean±SEM. (G) Growth of PC9-LeptoM tumor after treatment indicated in (A). Left: in vivo BLI imaging in day 28 post-inoculation. n=8-10 per group in each of two independent experiments. Right: Representative BLI images. **** indicates p<0.0001. Data represent mean±SEM. (H) Kaplan-Meier survival curve from (C) and (E). p<0.0001. (I and J) Total iron concentration measured in CSF samples of mice with treatment of chelators in PC9-LeptoM Model (I) in MDA231-LeptoM model (J). NS=not significant, * indicates p<0.05, ** indicates p<0.01 (unpaired t test). Data represent mean±SEM. (K and L) Immune cell composition in CSF of LLC-LeptoM model with the treatment of vehicle, DFO, or D-pen at day 10. n=6 per group. NS=not significant, * indicates p<0.05, ** indicates p<0.01 (unpaired t test). Data represent mean±SEM.
In vivo leptomeningeal metastasis assays. To model leptomeningeal metastasis with a known consistent disease burden, 2×10^3 PC9, 2×10^3 MDA231, or 1×10^3 LLC Parental or LeptoM cells suspended in 10 μl PBS were injected into the cisterna magna of anesthetized mice. This procedure was tolerated well by the mice. Tumor progression was monitored by bioluminescence imaging (BLI) every 7 days after tumor cell inoculation, and mouse condition was monitored daily. […]

PC9-LeptoM cells = test: In vivo leptomeningeal metastasis assay, PC9-LeptoM model, intracisternal chelator treatment; design: species or system mouse
LeptoM cells = test: Cell Viability Assay / growth after chelator treatment; type: cell-based, human; details: PC9-LeptoM and MDA231-LeptoM; in words
Description: as §1, with “NS=not significant, * indicates p<0.05, ** indicates p<0.01 (unpaired t test). Data represent mean±SEM. (K and L) Immune cell composition in CSF of LLC-LeptoM model with the treatment of vehicle, DFO, or D-pen at day 10. n=6 per group. NS=not significant, * indicates p<0.05, ** indicates p<0.01 (unpaired t test). Data represent mean±SEM.” left out
Cell Viability Assay. […] The CellTiter-Glo Luminescent Cell Viability Assay (Promega G9241) was used to quantify viable cells in culture according to the manufacturer's protocols. […]

[1] = IT-DFO dose escalation toxicity in healthy C57BL6/J mice; type: in vivo, mouse
Procedure: An IT-DFO dose escalation experiment was completed to determine the lethal dose to 10% of rodents (LD10) and any dose-dependent toxicities to the systemic circulation and organ function in a mouse model. In this study, healthy C57BL6/J mice were injected intracistemally with either PBS (control) or with a fixed dose of DFO (0.05 μM, 1 μM, 10 μM, 50 μM and 100 μM) in replicate at a schedule of twice weekly for a total of 6 weeks (42 days). Mice were monitored for weekly weights and survival trends. Remaining mice were sacrificed on day 46 and circulating blood collected via cardiac puncture. Blood was sent for complete blood count (CBC) with automated differential and complete metabolic panels (CMP).

Q: With `CC(C)(S)[C@@H](N)C(=O)O` [D-Pen, D-penicillamine] as the compound, how does the “Median Survival” value (MDA231-LeptoM cells; MDA231-LeptoM model, intracisternal, start day not given) read?
A: Its value is 28 ± 7 days.

Q: What about the “[Fe]” value (MDA231-LeptoM cells; MDA231-LeptoM model, start day not given) of the same compound?
A: Its value is 39.44 ± 2.43 µM.

Q: Which results are given for `CC(=O)N(O)CCCCCNC(=O)CCC(=O)N(O)CCCCCNC(=O)CCC(=O)N(O)CCCCCN` [DFO, Deferoxamine mesylate]?
A: [Fe] (PC9-LeptoM cells; total iron in CSF, early (day 0)): 5.63 ± 0.70 µM; Median Survival (PC9-LeptoM cells; treatment begun early (day 0), every 3 days): 52 ± 7 days; growth of the LeptoM cells (LeptoM cells): substantially suppressed; also recorded: dramatically suppressed; iron concentration in the CSF compared to control mice (MDA231-LeptoM cells; MDA231-LeptoM model, day 28, in words): profoundly decreased; also recorded: reduced CSF iron concentration to that of non-LeptoM control mice; [Fe] (MDA231-LeptoM cells; MDA231-LeptoM model, early (day 0)): 10.55 ± 1.31 µM; [Fe] (MDA231-LeptoM cells; MDA231-LeptoM model, late (day 7)): 9.19 ± 0.98 µM; Median Survival (MDA231-LeptoM cells; MDA231-LeptoM model, treatment begun early (day 0)): 54.5 ± 5.5 days; Median Survival (MDA231-LeptoM cells; MDA231-LeptoM model, treatment begun late (day 7)): 38 ± 7 days; dissemination of cancer cells over the spinal cord (MDA231-LeptoM cells; MDA231 mouse model, both early and late treatment groups, in words): impaired dissemination; survival compared with vehicle control (MDA231-LeptoM cells; MDA231 mouse model, in words): conferred a survival benefit; also recorded: significant survival benefit; lethality with cumulative twice weekly dosing (LD for % rodents) ([1]; 10 μM group, one mouse died at day 24, total N=12): 8.3%; lethality with cumulative twice weekly dosing (LD for % rodents) ([1]; 50 μM group, one mouse died at day 46, total N=8): 12.5%; lethality following a single dose ([1]; any tested concentration (0.05, 1, 10, 50, 100 μM)): no mice died; tolerability of intracisternal administration ([1]; mouse, in vivo): well tolerated
